Experimental data from patent EP4732840A1, “AGENT FOR SUPPRESSING PROLIFERATION OF BACTERIA, AND COSMETIC, QUASI-DRUG, AND PHARMACEUTICAL COMPOSITION CONTAINING SAID AGENT, AND METHOD FOR SUPPRESSING PROLIFERATION OF BACTERIA” (Toyo Sugar Refining Co., Ltd., priority 2023, dated 2024).

How the values were obtained:
[1] = tested on: Staphylococcus epidermidis; conditions: viable count after 24 hours or 48 hours exposure; Patent Literature 2; cited from earlier work
[2] = tested on: Pseudomonas cepacia; conditions: viable count after 24 hours or 48 hours exposure; Patent Literature 2; cited from earlier work
[3] = tested on: Pseudomonas aeruginosa; conditions: viable count after 24 hours or 48 hours exposure; Patent Literature 2; cited from earlier work
[4] = tested on: Escherichia coli; conditions: viable count after 24 hours or 48 hours exposure; Patent Literature 2; cited from earlier work
[5] = reported in Patent Literature 2; cited from earlier work
[6] = tested on: Staphylococcus aureus; conditions: viable count after 24 hours or 48 hours exposure; Patent Literature 2; cited from earlier work
[7] = tested on: Corynebacterium minutissimum; conditions: viable count after 24 hours or 48 hours exposure; Patent Literature 2; cited from earlier work
[8] = tested on: Staphylococcus aureus; assay: Proliferation test with paper disc on agar plate (growth inhibition zone); format: cell-based, Staphylococcus aureus (NBRC 13276); conditions: test substance (COSARTE-2G or glycerin) diluted to 40% by mass, 50 µL on paper disc; BHI agar, 48 hours
Method: (§1) As glyceryl glucoside, COSARTE-2G (manufactured by Toyo Sugar Refining Co., Ltd.) was diluted with ion-exchanged water such that COSARTE-2G was 40% by mass. Further, as a positive control, BD (Sensi-Disc Tetracycline 30, Antimicrobial Susceptibility Test Kit, manufactured by Nippon Becton Dickinson Company, Ltd.) was used. As a control, glycerin (manufactured by Nacalai Tesque Inc.) was diluted with ion-exchanged water to be 40% by mass.
Staphylococcus aureus (NBRC 13276) was used as a representative strain of Staphylococcus aureus. A Staphylococcus aureus strain was added to BHI liquid medium and pre-cultured at 37°C.
(§2) GAM agar plates and BHI agar plates were prepared. Pre-cultured Propionibacterium acnes, Streptococcus mutans, and Staphylococcus aureus strains in the logarithmic growth phase were suspended in liquid medium to a concentration of 1 × 10^7 cells/mL, and 50 µL of this suspension was taken and spread onto each agar plate medium using a glass spreader.
(§3) Each test substance was sterilized by filtration using a membrane filter, and then 50 µL was impregnated into a sterilized paper disc. […]
(§4) The effect of inhibiting the proliferation of bacteria was determined by the presence or absence and size of the growth inhibition zone around the paper disc.

[9] = tested on: Propionibacterium acnes; assay: as above; format: cell-based, Propionibacterium acnes (JCM 6425); conditions: test substance (COSARTE-2G or glycerin) diluted to 40% by mass, 50 µL on paper disc; GAM agar, anaerobic, 48 hours
Method: as §1
Propionibacterium acnes (JCM 6425) was used as a representative strain of Propionibacterium acnes. A Propionibacterium acnes strain was added to GAM liquid medium and pre-cultured at 35°C under anaerobic conditions using an AnaeroPack.
as §2, §3, §4

[10] = tested on: Streptococcus mutans; assay: as above; format: cell-based, Streptococcus mutans (JCM 5705); conditions: test substance (COSARTE-2G or glycerin) diluted to 40% by mass, 50 µL on paper disc; BHI agar, 48 hours
Method: as §1
Streptococcus mutans (JCM 5705) was used as a representative strain of Streptococcus mutans. A Streptococcus mutans strain was added to BHI liquid medium and pre-cultured at 35°C.
as §2
Each test substance was sterilized by filtration using a membrane filter, and then 50 µL was impregnated into a sterilized paper disc. A paper disk was aseptically placed on an agar plate medium, and cultured for 48 hours under conditions suitable for each bacterial strain.
as §4

[11] = Eye irritation test; format: in vivo; conditions: rabbit
[12] = Human patch test; format: in vivo
[13] = Primary skin irritation test; format: in vivo; conditions: rabbit
[14] = tested on: Lactobacillus crispatus; assay: Bacterial proliferation test (turbidity, absorbance at 600 nm); format: cell-based, Lactobacillus crispatus (ATCC 33820); conditions: C-mo 2G at final concentrations of 0.5%, 1.0%, 2.0% in medium; 1 culture day, 37°C, 5%CO2; n = 3
Text: (§5) C-mo2G (manufactured by Toyo Sugar Refining Co., Ltd.) was used as glyceryl glucoside. Furthermore, as a positive control, penicillin-streptomycin (manufactured by FUJIFILM Wako Pure Chemical Corporation, No. 168-23191) was used. Sterile water was used as a control.
(§6) Bacteria and media shown in Table 1 were used, and cultured under the conditions in Table 1.
(§7) As a GAM semi-fluid high layer medium, NO.05424 manufactured by NISSUI PHARMACEUTICAL CO., LTD. was used.
(§8) The number of culture days was set to such a number of days that bacterial proliferation could be visually confirmed in the control.
(§9) Each bacterium in which a frozen stock (15% (vol/vol) glycerin was added to the medium) was inoculated into 9 mL of the medium, and culture was started. After culturing until reaching the logarithmic growth phase, the medium was well stirred to make the turbidity uniform, and then the absorbance at 600 nm was measured. The medium was diluted with a medium such that the absorbance (600 nm) was 0.1, and this was used as a bacterial diluent.
(§10) C-mo 2G was added to the medium at final concentrations of 0.5%, 1.0%, and 2.0%. […]
(§11) 200 µL of the bacterial diluent was added to 9 mL of the medium containing the test substance, and culture was started. After culturing, the medium was well stirred to make the turbidity uniform, and then the absorbance (turbidity) at 600 nm was measured. […]

[15] = Skin sensitization test (intracutaneous Maximization method); format: in vivo; conditions: guinea pig intracutaneous Maximization method
[16] = Repeated skin irritation test; conditions: in vivo
[17] = Mutagenicity test (in vitro)
[18] = tested on: Lactobacillus iners; assay: Bacterial proliferation test (turbidity, absorbance at 600 nm); format: cell-based, Lactobacillus iners (ATCC 55195); conditions: C-mo 2G at final concentrations of 0.5%, 1.0%, 2.0% in medium; 3 culture days, 37°C, 5%CO2; n = 3
Text: as §5, §6, §7, §8, §9, §10, §11

[19] = tested on: Atopobium vaginae; assay: as above; format: cell-based, Atopobium vaginae (ATCC BAA-55); conditions: C-mo 2G at final concentrations of 0.5%, 1.0%, 2.0% in medium; 2 culture days, 37°C, anaerobic; n = 3; effect concentration dependent
Text: as §5, §6, §7, §8
An experiment was performed using Atopobium vaginae as a representative bacterium of the genus Atopobium.
as §9, with “diluent. […]” for “diluent.”
as §11

[20] = Phototoxicity test; format: in vivo; conditions: guinea pig
[21] = Water solubility; format: physicochemical
[22] = Photosensitization test; conditions: in vivo
[23] = tested on: Gardnerella vaginalis; assay: Bacterial proliferation test (turbidity, absorbance at 600 nm); format: cell-based, Gardnerella vaginalis (ATCC 14018); conditions: C-mo 2G at final concentrations of 0.5%, 1.0%, 2.0% in medium; 3 culture days, 37°C, 5%CO2; n = 3; effect concentration dependent
Text: as §5, §6, §7, §8, §9, §10, §11

## α-D-glucopyranosylglycerol
[1]
  antimicrobial activity against Staphylococcus epidermidis: antimicrobial activity
[2]
  antimicrobial activity against Pseudomonas cepacia: antimicrobial activity
[3]
  antimicrobial activity against Pseudomonas aeruginosa: antimicrobial activity
[4]
  antimicrobial activity against Escherichia coli: antimicrobial activity
[5]
  skin irritation: no skin irritation
[6]
  antimicrobial activity against Staphylococcus aureus: antimicrobial activity
[7]
  antimicrobial activity against Corynebacterium minutissimum: antimicrobial activity

## OCC(O)CO [Glycerin, glycerin, reference compound]
[8]
  growth inhibition zone around the paper disc, Staphylococcus aureus: same result as glyceryl glucoside
[9]
  growth inhibition zone around the paper disc, Propionibacterium acnes: same result as glyceryl glucoside
[10]
  growth inhibition zone around the paper disc, Streptococcus mutans: same result as glyceryl glucoside

## glyceryl glucoside
[11]
  toxicity in eye irritation test: no toxicity
[8]
  growth inhibition zone around the paper disc, Staphylococcus aureus: no growth inhibition zone
[12]
  toxicity in human patch test: no toxicity
[13]
  toxicity in primary skin irritation test: no toxicity
[14]
  proliferation of Lactobacillus crispatus (number of bacteria, absorbance 600 nm) relative to control: little change in the number
[15]
  toxicity in skin sensitization test: no toxicity
[16]
  toxicity in repeated skin irritation test: no toxicity
[17]
  toxicity in mutagenicity test: no toxicity
[18]
  proliferation of Lactobacillus iners (number of bacteria, absorbance 600 nm) relative to control: increased
[9]
  growth inhibition zone around the paper disc, Propionibacterium acnes: no growth inhibition zone
[19]
  proliferation of Atopobium vaginae (absorbance 600 nm) relative to control: significantly inhibited
[10]
  growth inhibition zone around the paper disc, Streptococcus mutans: no growth inhibition zone
[20]
  toxicity in phototoxicity test: no toxicity
[21]
  water solubility: good
[22]
  toxicity in photosensitization test: no toxicity
[23]
  proliferation of Gardnerella vaginalis (absorbance 600 nm) relative to control: significantly inhibited
